Measured values: patent publication US6723897B2, “Methods for controlling gibberellin levels” (Monsanto Technology, LLC, priority 1998, dated 2004)
“Also recorded” adds a separate entry of the source.

Key:
[1] = system: wild-type soybean line A3237; assay: Experiment I greenhouse test, seed imbibition, wild-type soybean; conditions: 0.25 mg/ml; seeds imbibed 5 hours
Method: Compounds are first prepared as 25 mg/ml solutions in ethanol as described above, and then diluted into 40 ml of water to prepare the final 0.25 mg/ml treatment solutions. Visual observations on solubilities (milky, clear, etc.) of the treatment solutions are noted. The treatment solutions are divided into two 20 ml portions, each in 50 ml plastic centrifuge tubes. In addition to treating seeds with solutions containing the test compounds, untreated seeds and seeds imbibed in ethanol-water solution (300 μl ethanol in 30 mls of water) are also included in this experiment as controls. […]
After imbibition, seeds are removed from the test tubes, placed on wax paper to dry, and planted in bread pans containing farm soil amended with fertilizer at 20 seeds/pan. Seeds are covered with 0.5″ of vermiculite. Pans are transferred to the greenhouse, which had day/night temperatures of 86/68° F. (30/20° C.), and subirrigated. Illumination is at a light intensity of 300-400 μmolm^−2s^−1 photosynthetic photon flux; 16 hours light/8 hours dark. Subsequent waterings are also through sub-irrigation until the test is terminated three weeks later. Observations included the number of dwarf, intermediate, and tall plants; plant height; uniformity of rescue; and any visual effects.

[2] = system: constitutively GA-deficient transgenic dwarf soybean line 719; assay: Experiment IV field test, seed imbibition, compacted soil; type: in vivo, Glycine max; conditions: for No. of Dwarfs Not Rescued / Total Plants: imbibed 8 hours; for Total Plants: 25 seeds planted; for % of Dwarfs Rescued: relative to 8.5 true dwarfs per plot; for field result on line 719 in words: over the rates tested (0.0025-0.25 mg/ml)
From the text: The objective of these experiments is to determine if there is a greenhouse to field translation of results with selected GA compounds with respect to rescue of constitutively GA-deficient transgenic dwarf soybeans and elongation of wild-type plants. […] For the first field trial, the solutions previously used for the second greenhouse test, and stored in the freezer, are employed. […] For comparison, freshly prepared solutions of GA3 are also employed. The compounds tested included kaurenoic acid, fresh GA3, stored GA3, GA3-3-acetate, GA5, GA9, and GA12. […] Seeds of line […] are imbibed for 8 hours. Untreated dry seeds served as controls. After imbibition, the remaining solutions are returned to the freezer. Seeds are kept on the benchtop at room temperature overnight. […] Untreated dry seeds served as controls. Following planting line 719, all plots (both […] and line 719) are compacted by driving an all-terrain vehicle over the planted rows twice, and watered. All GA solutions are discarded. The results are shown in Table 15 for constitutively GA-deficient transgenic dwarf line 719 only as insufficient […] germinated to make any useful observations. Observations included number of plants that germinated, number rescued, and visual observations. Two points should be noted concerning the data in Table 15. […] Next, the number of dwarfs not rescued in any treatment is subtracted from 8.5.

[3] = system: constitutively GA-deficient transgenic dwarf soybean line 719; assay: Experiment II second greenhouse test, seed imbibition, GA-deficient soybean; type: in vivo, Glycine max; conditions: seeds imbibed 6 hours
Method: (The compounds are tested in Experiment I at only one concentration, i.e., 0.25 mg/ml). Test tubes contained […] of ethanol solution per tube. Final volumes are made up to 30 ml with deionized water. After shaking, the treatment solutions (15 ml each) are transferred to each of two 50 ml test tubes. […] Twenty seeds are used in each treatment. Dry seed, ethanol/water-imbibed seed (1% ethanol in water, v/v), and water-imbibed seeds are included as controls. Seeds are imbibed for 6 hours in the test solutions, then planted in bread pans containing Metromix 350 (The Scotts Company, Marysville, Ohio), and covered with 0.5″ Metro-mix. Covered pans are transferred to the greenhouse and subirrigated. Illumination is at a light intensity of 300-400 μmolm^−2s^−1 photosynthetic photon flux; 16 hours light/8 hours dark. Subsequent waterings are also through sub-irrigation until the test is terminated three weeks later. Observations included the number of dwarf, intermediate, and tall plants; plant height; uniformity of rescue; and any visual effects. Digital photographs are also taken.

[4] = system: constitutively GA-deficient transgenic dwarf soybean line 719; assay: Fifth and sixth field tests, emergence after seed imbibition; type: in vivo, Glycine max; conditions: for Total Emerged: 50 seeds imbibed 5 hours
Method: Fresh stock solutions of compounds are prepared for this test. Kaurenoic acid is tested at 0.025 and 0.25 mg/ml; GA3 is tested at 0.025, 0.25, and 0.5 mg/ml; GA3-3-acetate at 0.025 and 0.25 mg/ml; GA5 at 0.025 and 0.25 mg/ml; GA9 at 0.025 and 0.04 mg/ml; and GA12 at 0.025 and 0.25 mg/ml. Stock solutions are prepared in ethanol in 50 ml plastic centrifuge tubes; deionized water is then added to make up the volumes to 30 ml. The final solutions contained 300 μl ethanol in 30 mls. […] Seeds are imbibed for 6 hours, and planted 1″ deep in a single row in moist to wet soil. They are then covered with dry soil, and the row is compacted twice with an all-terrain vehicle. Untreated dry seeds served as controls. The GA solutions are placed on dry ice until reuse the next day.
The next day, additional seeds of constitutive transgenic dwarf line 719 (50 seeds/treatment) are imbibed in the remaining treatment solutions for 5 hours, and planted in moist soil. The rows are compacted twice.

Row | SMILES | Observation on Wild-Type Line A3237 [1] | field result on line 719 in words [2] | No. of Dwarfs Not Rescued ([2]; stored solution 0.0025 mg/ml) | Total Plants ([2]; stored solution 0.0025 mg/ml) | % of Dwarfs Rescued ([2]; stored solution 0.0025 mg/ml) [%] | No. of Dwarfs Not Rescued ([2]; stored solution 0.025 mg/ml) | Total Plants ([2]; stored solution 0.025 mg/ml) | % of Dwarfs Rescued ([2]; stored solution 0.025 mg/ml) [%] | Visual Observations on Transgenic Line 719 ([2]; stored solution 0.25 mg/ml) | No. of Dwarfs Not Rescued ([2]; stored solution 0.25 mg/ml) | Total Plants ([2]; stored solution 0.25 mg/ml) | % of Dwarfs Rescued ([2]; stored solution 0.25 mg/ml) [%] | Significant Visual Observations on Line 719 ([3]; 0.0025 mg/ml) | Significant Visual Observations on Line 719 ([3]; 0.025 mg/ml) | Significant Visual Observations on Line 719 ([3]; 0.25 mg/ml) | Total Emerged ([4]; 0.025 mg/ml) | Total Emerged ([4]; 0.25 mg/ml) | Visual Observations on Transgenic Line 719 ([4]; 0.25 mg/ml) | Visual Observations on Transgenic Line 719 ([4]; 0.025 mg/ml) | further results
1 | C=C1C[C@]23C[C@@]1(O)CC[C@H]2[C@@]12C=C[C@H](O)[C@@](C)(C(=O)O1)[C@H]2[C@@H]3C(=O)O [GA3, gibberellic acid] | 3 | poor emergence at all rates | 0 | 14 | 100 | 0 | 9 | 100 | Extremely elongated plants | 0 | 7 | 100 | Excessive elongation | Excessive elongation | Excessive elongation | 15 | 9 |  |  | No. of Dwarfs Not Rescued ([2]; fresh solution 0.0025 mg/ml): 0; Total Plants ([2]; fresh solution 0.0025 mg/ml): 13; % of Dwarfs Rescued ([2]; fresh solution 0.0025 mg/ml): 100%; No. of Dwarfs Not Rescued ([2]; fresh solution 0.025 mg/ml): 1; Total Plants ([2]; fresh solution 0.025 mg/ml): 13; % of Dwarfs Rescued ([2]; fresh solution 0.025 mg/ml): 88.2%; No. of Dwarfs Not Rescued ([2]; fresh solution 0.25 mg/ml): 0; Total Plants ([2]; fresh solution 0.25 mg/ml): 1; % of Dwarfs Rescued ([2]; fresh solution 0.25 mg/ml): 100%; Visual Observations on Transgenic Line 719 ([2]; stored solution 0.025 mg/ml): Extremely elongated plants; Total Emerged ([4]; 0.5 mg/ml): 1
2 | C=C1C[C@]23C[C@@]1(O)CC[C@H]2[C@@]12C=C[C@H](OC(C)=O)[C@@](C)(C(=O)O1)[C@H]2[C@@H]3C(=O)O [GA3-3-acetate] | 3 | excessive elongation, and no uniformity in plant height | 0 | 21 | 100 | 0 | 1 | 100 | Extremely elongated plants | 0 | 3 | 100 | good rescue, with no overelongation | Poor rescue | Excessive elongation | 2 | 1 | Overelongation |  | 
3 | C=C1C[C@]23C[C@@]1(O)CC[C@H]2[C@@]12CC=C[C@@](C)(C(=O)O1)[C@H]2[C@@H]3C(=O)O [GA5] | 4 | slight to excessive elongation, and no uniformity in plant height | 8 | 25 | 5.9 | 0 | 20 | 100 | Extremely elongated plants | 0 | 7 | 100 | Good rescue of dwarfs | good rescue, with no overelongation | Excessive elongation | 21 | 3 |  | good emergence with good rescue | 
4 | C=C1C[C@]23C[C@H]1CC[C@H]2[C@@]12CCC[C@@](C)(C(=O)O1)[C@H]2[C@@H]3C(=O)O [GA9] | 3 | slight elongation, and no uniformity in height | 7 | 20 | 17.6 | 0 | 22 | 100 | Slightly elongated plants | 0 | 17 | 100 |  |  |  | 24 |  |  | good emergence with good rescue; also recorded: No dwarfs in plots | Significant Visual Observations on Line 719 ([3]; 0.00125 mg/ml): Poor rescue; Significant Visual Observations on Line 719 ([3]; 0.0125 mg/ml): Good rescue of dwarfs; Significant Visual Observations on Line 719 ([3]; 0.125 mg/ml): good rescue, with no overelongation; Total Emerged ([4]; 0.04 mg/ml): 11
5 | C=C1C[C@]23C[C@H]1CC[C@H]2[C@]1(C)CCC[C@@](C)(C(=O)O)[C@H]1[C@@H]3C(=O)O [GA12] | −1 | good emergence | 5 | 20 | 41.2 | 4 | 22 | 52.9 |  | 0 | 20 | 100 | Poor rescue | Incomplete rescue | good rescue, with no overelongation | 28 | 9 |  |  | 
6 | C=C1C[C@@]23CC[C@H]4[C@@](C)(CCC[C@@]4(C)C(=O)O)[C@@H]2CC[C@@H]1C3 [kaurenoic acid] | 0 | poor uniformity in plant height | 5 | 23 | 41.2 | 4 | 17 | 52.9 |  | 6 | 22 | 29.4 | Poor rescue | Poor rescue | Poor rescue | 20 | 10 | Poor stand | Poor rescue | 
